{"source": "PubChem BioAssay (NCI)", "experiment_in_all_cases": "inhibition of tumour cell growth, NCI panel, 48 h", "key": {"[1]": {"system": "T-47D breast"}, "[2]": {"system": "A498 renal"}, "[3]": {"system": "HCT-116 colon"}, "[4]": {"system": "SF-268 CNS"}, "[5]": {"system": "CCRF-CEM leukemia"}, "[6]": {"system": "SK-MEL-28 melanoma"}, "[7]": {"system": "SN12C renal"}, "[8]": {"system": "RXF 393 renal"}, "[9]": {"system": "HOP-62 NSCLC"}, "[10]": {"system": "SK-MEL-5 melanoma"}, "[11]": {"system": "DU-145 prostate"}, "[12]": {"system": "NCI/ADR-RES ovarian"}}, "note": "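Briefly, cells in 96-well plates were exposed to five compound concentrations for 48 h, and endpoints were estimated by linear interpolation. TGI marks complete inhibition of growth.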"}
{"smiles": "N#Cc1cnc(N)nc1NCC1(CO)CC(CCc2ccccc2)C1", "note": "(centres undefined)", "values": [{"measurement": "TGI", "setting": "[1]", "value": "> 20.5", "unit": "µM"}, {"measurement": "TGI", "setting": "[2]", "value": "> 100", "unit": "µM"}, {"measurement": "TGI", "setting": "[3]", "value": "> 100", "unit": "µM"}, {"measurement": "TGI", "setting": "[4]", "value": "> 100", "unit": "µM"}, {"measurement": "TGI", "setting": "[5]", "value": "> 100", "unit": "µM"}, {"measurement": "TGI", "setting": "[6]", "value": "> 100", "unit": "µM"}, {"measurement": "TGI", "setting": "[7]", "value": "> 100", "unit": "µM"}, {"measurement": "TGI", "setting": "[8]", "value": "> 100", "unit": "µM"}, {"measurement": "TGI", "setting": "[9]", "value": "> 100", "unit": "µM"}, {"measurement": "TGI", "setting": "[10]", "value": "> 100", "unit": "µM"}, {"measurement": "TGI", "setting": "[11]", "value": "> 100", "unit": "µM"}, {"measurement": "TGI", "setting": "[12]", "value": "> 100", "unit": "µM"}]}
{"smiles": "N#Cc1c(N)nc(Sc2ccccc2N)c(C#N)c1-c1ccc(Cl)cc1", "values": [{"measurement": "TGI", "setting": "[1]", "value": 4.24, "unit": "µM"}, {"measurement": "TGI", "setting": "[2]", "value": 16.9, "unit": "µM"}, {"measurement": "TGI", "setting": "[3]", "value": "> 72.6", "unit": "µM"}, {"measurement": "TGI", "setting": "[4]", "value": 23.8, "unit": "µM"}, {"measurement": "TGI", "setting": "[5]", "value": "> 100", "unit": "µM"}, {"measurement": "TGI", "setting": "[6]", "value": "> 100", "unit": "µM"}, {"measurement": "TGI", "setting": "[7]", "value": 40.4, "unit": "µM"}, {"measurement": "TGI", "setting": "[8]", "value": 49.9, "unit": "µM"}, {"measurement": "TGI", "setting": "[9]", "value": 17.2, "unit": "µM"}, {"measurement": "TGI", "setting": "[10]", "value": "> 55", "unit": "µM"}, {"measurement": "TGI", "setting": "[11]", "value": "> 58.2", "unit": "µM"}, {"measurement": "TGI", "setting": "[12]", "value": 35.5, "unit": "µM"}]}
{"smiles": "COc1ccc2nc(-c3ccc(O)cc3)sc2c1", "values": [{"measurement": "TGI", "setting": "[1]", "value": 36.7, "unit": "µM"}, {"measurement": "TGI", "setting": "[2]", "value": 85.7, "unit": "µM"}, {"measurement": "TGI", "setting": "[3]", "value": 32.7, "unit": "µM"}, {"measurement": "TGI", "setting": "[4]", "value": 49.5, "unit": "µM"}, {"measurement": "TGI", "setting": "[7]", "value": 39.5, "unit": "µM"}, {"measurement": "TGI", "setting": "[8]", "value": 40.9, "unit": "µM"}, {"measurement": "TGI", "setting": "[10]", "value": 38, "unit": "µM"}, {"measurement": "TGI", "setting": "[11]", "value": "> 100", "unit": "µM"}, {"measurement": "TGI", "setting": "[12]", "value": 72.6, "unit": "µM"}]}
{"smiles": "CO/N=C(\\C)c1cccc(Nc2c3ccccc3nc3occc23)c1", "values": [{"measurement": "TGI", "setting": "[1]", "value": 28.8, "unit": "µM"}, {"measurement": "TGI", "setting": "[2]", "value": 38.9, "unit": "µM"}, {"measurement": "TGI", "setting": "[3]", "value": 21.2, "unit": "µM"}, {"measurement": "TGI", "setting": "[4]", "value": 31.8, "unit": "µM"}, {"measurement": "TGI", "setting": "[5]", "value": "> 100", "unit": "µM"}, {"measurement": "TGI", "setting": "[6]", "value": 16.5, "unit": "µM"}, {"measurement": "TGI", "setting": "[7]", "value": 38, "unit": "µM"}, {"measurement": "TGI", "setting": "[8]", "value": 5.87, "unit": "µM"}, {"measurement": "TGI", "setting": "[9]", "value": 20.2, "unit": "µM"}, {"measurement": "TGI", "setting": "[10]", "value": 19.1, "unit": "µM"}, {"measurement": "TGI", "setting": "[11]", "value": 44.4, "unit": "µM"}, {"measurement": "TGI", "setting": "[12]", "value": 15.6, "unit": "µM"}]}
{"smiles": "Cc1cc(=O)oc2c(CNC(Cc3ccccc3)C(=O)O)c(O)ccc12", "note": "(centres undefined)", "values": [{"measurement": "TGI", "setting": "[1]", "value": "> 100", "unit": "µM"}, {"measurement": "TGI", "setting": "[3]", "value": "> 100", "unit": "µM"}, {"measurement": "TGI", "setting": "[4]", "value": "> 100", "unit": "µM"}, {"measurement": "TGI", "setting": "[5]", "value": "> 100", "unit": "µM"}, {"measurement": "TGI", "setting": "[6]", "value": "> 100", "unit": "µM"}, {"measurement": "TGI", "setting": "[7]", "value": "> 100", "unit": "µM"}, {"measurement": "TGI", "setting": "[8]", "value": "> 100", "unit": "µM"}, {"measurement": "TGI", "setting": "[9]", "value": "> 100", "unit": "µM"}, {"measurement": "TGI", "setting": "[10]", "value": "> 100", "unit": "µM"}, {"measurement": "TGI", "setting": "[11]", "value": "> 100", "unit": "µM"}, {"measurement": "TGI", "setting": "[12]", "value": "> 100", "unit": "µM"}]}
{"smiles": "CCCC(=O)OC1C(CO)OC(n2cc(F)c(=O)[nH]c2=O)C1F", "note": "(centres undefined)", "values": [{"measurement": "TGI", "setting": "[1]", "value": "> 100", "unit": "µM"}, {"measurement": "TGI", "setting": "[2]", "value": "> 100", "unit": "µM"}, {"measurement": "TGI", "setting": "[3]", "value": "> 100", "unit": "µM"}, {"measurement": "TGI", "setting": "[5]", "value": "> 100", "unit": "µM"}, {"measurement": "TGI", "setting": "[6]", "value": "> 100", "unit": "µM"}, {"measurement": "TGI", "setting": "[7]", "value": "> 100", "unit": "µM"}, {"measurement": "TGI", "setting": "[8]", "value": "> 100", "unit": "µM"}, {"measurement": "TGI", "setting": "[9]", "value": "> 100", "unit": "µM"}, {"measurement": "TGI", "setting": "[10]", "value": "> 100", "unit": "µM"}, {"measurement": "TGI", "setting": "[11]", "value": "> 100", "unit": "µM"}, {"measurement": "TGI", "setting": "[12]", "value": "> 100", "unit": "µM"}]}
{"smiles": "COCN1C(=O)[C@@H]2CCCN2C(=O)c2cc(N)ccc21", "values": [{"measurement": "TGI", "setting": "[1]", "value": "> 100", "unit": "µM"}, {"measurement": "TGI", "setting": "[2]", "value": "> 100", "unit": "µM"}, {"measurement": "TGI", "setting": "[3]", "value": "> 100", "unit": "µM"}, {"measurement": "TGI", "setting": "[4]", "value": "> 100", "unit": "µM"}, {"measurement": "TGI", "setting": "[6]", "value": "> 100", "unit": "µM"}, {"measurement": "TGI", "setting": "[7]", "value": "> 100", "unit": "µM"}, {"measurement": "TGI", "setting": "[8]", "value": "> 100", "unit": "µM"}, {"measurement": "TGI", "setting": "[9]", "value": "> 100", "unit": "µM"}, {"measurement": "TGI", "setting": "[11]", "value": "> 100", "unit": "µM"}, {"measurement": "TGI", "setting": "[12]", "value": "> 100", "unit": "µM"}]}
{"smiles": "CC(=O)OCC1OC(n2c(-c3ccc(C)cc3)cc(-c3ccccc3)c(C#N)c2=S)C(OC(C)=O)C(OC(C)=O)C1OC(C)=O", "note": "(centres undefined)", "values": [{"measurement": "TGI", "setting": "[1]", "value": "> 100", "unit": "µM"}, {"measurement": "TGI", "setting": "[2]", "value": "> 100", "unit": "µM"}, {"measurement": "TGI", "setting": "[3]", "value": "> 100", "unit": "µM"}, {"measurement": "TGI", "setting": "[4]", "value": "> 100", "unit": "µM"}, {"measurement": "TGI", "setting": "[6]", "value": "> 100", "unit": "µM"}, {"measurement": "TGI", "setting": "[7]", "value": "> 100", "unit": "µM"}, {"measurement": "TGI", "setting": "[8]", "value": "> 100", "unit": "µM"}, {"measurement": "TGI", "setting": "[9]", "value": "> 100", "unit": "µM"}, {"measurement": "TGI", "setting": "[10]", "value": "> 100", "unit": "µM"}, {"measurement": "TGI", "setting": "[11]", "value": "> 100", "unit": "µM"}, {"measurement": "TGI", "setting": "[12]", "value": "> 100", "unit": "µM"}]}
{"smiles": "Cc1cn(CC2=NCC(C)N2)c(=O)[nH]c1=O", "note": "(centres undefined)", "values": [{"measurement": "TGI", "setting": "[1]", "value": "> 100", "unit": "µM"}, {"measurement": "TGI", "setting": "[2]", "value": "> 100", "unit": "µM"}, {"measurement": "TGI", "setting": "[3]", "value": "> 100", "unit": "µM"}, {"measurement": "TGI", "setting": "[4]", "value": "> 100", "unit": "µM"}, {"measurement": "TGI", "setting": "[6]", "value": "> 100", "unit": "µM"}, {"measurement": "TGI", "setting": "[7]", "value": "> 100", "unit": "µM"}, {"measurement": "TGI", "setting": "[8]", "value": "> 100", "unit": "µM"}, {"measurement": "TGI", "setting": "[9]", "value": "> 100", "unit": "µM"}, {"measurement": "TGI", "setting": "[10]", "value": "> 100", "unit": "µM"}, {"measurement": "TGI", "setting": "[11]", "value": "> 100", "unit": "µM"}, {"measurement": "TGI", "setting": "[12]", "value": "> 100", "unit": "µM"}]}
